Where two headings read alike, the source gives them in different places.
Legend:
[1] = tested on: leukemia (CCRF-CEM, HL-60 (TB), K-562, MOLT-4, RPMI-8226, and SR); assay: NCI in vitro anticancer screen, leukemia subpanel; assay type: cell-based; conditions: read-out: GI50 Leukemia
[2] = tested on: non-small cell lung cancer (A549/ATCC, EKVX, HOP-62, HOP-92, NCI-H226, NCI-H23, NCI-H322M, NCI-H460, and NCI-H522); assay: NCI in vitro anticancer screen, non-small-cell lung cancer subpanel; assay type: cell-based, human
[3] = tested on: colon cancer (COLO 205, HCC-2998, HCT-116, HCT-15, HT29, KM12, and SW-620); assay: NCI in vitro anticancer screen, colon cancer subpanel; assay type: cell-based, human; conditions: read-out: GI50 Colon cancer
[4] = tested on: CNS cancer (SF-268, SF-295, SF-539, SNB-19, SNB-75, and U251); assay: NCI in vitro anticancer screen, CNS cancer subpanel; assay type: cell-based, human; conditions: read-out: GI50 CNS cancer
[5] = tested on: melanoma (LOX IMVI, MALME-3M, M14, SK-MEL-2, SK-MEL-28, SK-MEL-5, UACC-62, and UACC-257); assay: NCI in vitro anticancer screen, melanoma subpanel; assay type: cell-based, human; conditions: read-out: GI50 Melanoma
[6] = tested on: ovarian cancer (IGROV1, OVCAR-3, OVCAR-4, OVCAR-5, OVCAR-8, and SK-OV-3); assay: NCI in vitro anticancer screen, ovarian cancer subpanel; assay type: cell-based, human; conditions: read-out: GI50 Ovarian cancer
[7] = tested on: renal cancer (786-0, A498, ACHN, CAKI-1, RXF 393, SN12C, TK-10, and UO-31); assay: NCI in vitro anticancer screen, renal cancer subpanel; assay type: cell-based, human; conditions: read-out: GI50 Renal cancer
[8] = tested on: prostate cancer (PC-3 and DU-145); assay: NCI in vitro anticancer screen, prostate cancer subpanel; assay type: cell-based, human
[9] = tested on: breast cancer (MCF7, MCF7/ADR-RES, MDA-MB-231/ATCC, HS 578T, MDA-MB-435, MDA-N, and T-47D); assay: NCI in vitro anticancer screen, breast cancer subpanel; assay type: cell-based, human; conditions: read-out: GI50 Breast cancer
[10] = tested on: NCI's full panel of 60 human cancer cell lines; assay: NCI in vitro anticancer screen, full panel mean; assay type: cell-based
[11] = tested on: A549/ATCC; assay: NCI in vitro anticancer screen, A549/ATCC; assay type: cell-based, human; conditions: non-small-cell lung cancer cell line
[12] = tested on: EKVX; assay: NCI in vitro anticancer screen, EKVX; assay type: cell-based, human; conditions: non-small-cell lung cancer cell line
[13] = tested on: HOP-62; assay: NCI in vitro anticancer screen, HOP-62; assay type: cell-based, human
[14] = tested on: HOP-92; assay: NCI in vitro anticancer screen, HOP-92; assay type: cell-based, human
[15] = tested on: NCI-H226; assay: NCI in vitro anticancer screen, NCI-H226; assay type: cell-based, human; conditions: non-small-cell lung cancer cell line
[16] = tested on: NCI-H23; assay: NCI in vitro anticancer screen, NCI-H23; assay type: cell-based, human; conditions: non-small-cell lung cancer cell line
[17] = tested on: NCI-H322M; assay: NCI in vitro anticancer screen, NCI-H322M; assay type: cell-based, human; conditions: non-small-cell lung cancer cell line
[18] = tested on: NCI-H460; assay: NCI in vitro anticancer screen, NCI-H460; assay type: cell-based, human
[19] = tested on: NCI-H522; assay: NCI in vitro anticancer screen, NCI-H522; assay type: cell-based, human
[20] = Homo sapiens, subpanel value, concentration causing 50% cell growth inhibition
[21] = Homo sapiens, subpanel value, read-out: GI50 Non-small-cell lung cancer
[22] = Homo sapiens, DU-145, subpanel value, read-out: GI50 Prostate cancer
[23] = Homo sapiens, mean values over all cell lines tested, read-out: GI50 MG_MID
[24] = mean over all cell lines, read-out: mean GI50
[25] = non-small-cell lung cancer cell line

Row | Compound | GI50 [1, 20] [nM] | GI50 [2, 21] [nM] | GI50 ([3]; Homo sapiens, subpanel value) [nM] | GI50 ([4]; Homo sapiens, subpanel value) [nM] | GI50 ([5]; Homo sapiens, subpanel value) [nM] | GI50 ([6]; Homo sapiens, subpanel value) [nM] | GI50 ([7]; Homo sapiens, subpanel value) [nM] | GI50 [8, 22] [nM] | GI50 ([9]; Homo sapiens, subpanel value) [nM] | GI50 [10, 23] [nM] | GI50 [10, 24] [nM] | melting point [°C] | other results
1 | CC(=O)c1cccc(Nc2c3ccccc3nc3occc23)c1 [Compound 7, 1-[3-(Furo[2,3-b]quinolin-4-ylamino)phenyl]ethanone] | 3220 | 14500 | 5110 | 7630 | 6090 | 11300 | 10600 | 12000 | 5320 | 5270 | 5270 | 158 to 159 | –
2 | Nc1cc(CO)cc(Nc2c3ccccc3nc3occc23)c1 [Compound 4, 3-(Furo[2,3-b]quinolin-4-ylamino)-5-(hydroxymethyl)aniline] | 23000 | 40900 | 25200 | 45900 | 38600 | 47700 | 37700 | 53600 | 23800 | 31100 | – | 236 to 237 | –
3 | COc1cc(NS(C)(=O)=O)ccc1Nc1c2ccccc2nc2ccccc12 [m-AMSA, 4′-(9-acridinylamino)methanesulfonyl-m-anisidine, reference compound] | 100 | 350 | 1070 | 420 | 580 | 1050 | 870 | 160 | 580 | 440 | 440 | – | –
4 | C/C(=N\O)c1ccc(Nc2c3ccccc3nc3occc23)cc1 [Compound 8a, (E)-1-[4-(Furo[2.3-b]quinolin-4-ylamino)phenyl]ethanone oxime] | – | – | – | – | – | – | – | – | – | – | 350 | – | GI50 ([1]; subpanel value, concentration causing 50% cell growth inhibition): 140 nM; GI50 ([2]; subpanel value, read-out: GI50 Non-small-cell lung cancer): 4440 nM; GI50 ([3]; subpanel value): 170 nM; GI50 ([4]; subpanel value): 350 nM; GI50 ([5]; subpanel value): 950 nM; GI50 ([6]; subpanel value): 530 nM; GI50 ([7]; subpanel value): 2680 nM; GI50 ([8]; subpanel value, read-out: GI50 Prostate cancer): 530 nM; GI50 ([9]; subpanel value): 420 nM; GI50 ([10]; mean values over all cell lines tested, read-out: GI50 MG_MID): 350 nM; GI50 [11]: 450 nM; GI50 [12]: 4030 nM; GI50 [13, 25]: 180 nM; GI50 [14, 25]: 10900 nM; GI50 [15]: 11500 nM; GI50 [16]: 380 nM; GI50 [17]: 12200 nM; GI50 [18, 25]: 210 nM; GI50 [19]: 74 nM; GI50 [19, 25]: 74 nM
5 | C=C1CC(C)(c2ccc(Nc3c4ccccc4nc4occc34)cc2)OC1=O (stereo not shown) [Compound 6, 5-[4-(Furo[2,3-b]quinolin-4-ylamino)phenyl]-2,3,4,5-tetrahydro-5-methyl-3-methylidenefuran-2-one] | 900 | 5590 | 1560 | 5300 | 1710 | 1920 | 4760 | 1320 | 3270 | 1770 | – | – | GI50 ([10]; Homo sapiens, mean over all cell lines, read-out: mean GI50): 1770 nM
6 | C/C(=N\O)c1cccc(Nc2c3ccccc3nc3occc23)c1 [Compound 9a, (E)-1-[3-(Furo[2,3-b]quinolin-4-ylamino)phenyl]ethanone oxime] | 3640 | 8010 | 5350 | 10500 | 4810 | 13600 | 9900 | 16200 | 3620 | 5600 | 5600 | 248 to 249 | –
7 | CC(=O)c1ccc(Nc2c3ccccc3nc3occ(Cl)c23)cc1 [Compound 13, 1-[4-(3-Chlorofuro[2,3-b]quinolin-4-ylamino)phenyl]ethanone] | – | – | – | – | – | – | – | – | – | – | – | 245 to 247 | –
8 | CC(=O)c1ccc(Nc2c3ccccc3nc3occc23)cc1 [Compound 5, 1-[4-(Furo[2,3-b]quinolin-4-ylamino)phenyl]ethanone] | < 10 | 1750 | 11 | 16 | 18 | 39 | 35 | 21 | 17 | 25 | 25 | 220 to 221 | GI50 ([2]; Homo sapiens, read-out: average GI50 non-small-cell lung cancer): 1750 nM; GI50 ([10]; Homo sapiens, all types of cancer cells tested except non-small-cell lung cancer, read-out: mean GI50 in each type of cancer cells): < 40 nM; GI50 ([11]; Homo sapiens, A549): 570 nM; GI50 ([13]; Homo sapiens, HOP-62): < 10 nM; GI50 [13, 25]: < 10 nM; GI50 ([14]; Homo sapiens, HOP-92): 12400 nM; GI50 ([15]; Homo sapiens, NCI-H226): 310 nM; GI50 ([16]; Homo sapiens, NCI-H23): 37 nM; GI50 ([17]; Homo sapiens, NCI-H322M): 680 nM; GI50 ([18]; Homo sapiens, NCI-H460): 10 nM; GI50 ([19]; Homo sapiens, NCI-H522): < 10 nM; GI50 [19, 25]: < 10 nM
9 | COc1cccc2c1C(=O)c1c(O)c3c(c(O)c1C2=O)C[C@@](O)(C(C)=O)C[C@@H]3O[C@H]1C[C@H](N)[C@H](O)[C@H](C)O1 [DAM, Daunomycin, reference compound] | – | – | – | – | – | – | – | – | – | – | – | – | GI50 ([1]; Homo sapiens): < 10 nM; GI50 ([2]; Homo sapiens, read-out: GI50 Non-small-cell lung cancer): 43 nM; GI50 ([3]; Homo sapiens): 83 nM; GI50 ([4]; Homo sapiens): 20 nM; GI50 ([5]; Homo sapiens): 47 nM; GI50 ([6]; Homo sapiens): 62 nM; GI50 ([7]; Homo sapiens): 48 nM; GI50 ([8]; Homo sapiens, DU-145, read-out: GI50 Prostate cancer): 32 nM; GI50 ([9]; Homo sapiens): 110 nM; GI50 ([10]; Homo sapiens, read-out: GI50 MG_MID): 44 nM
10 | CO/N=C(\C)c1cccc(Nc2c3ccccc3nc3occc23)c1 [Compound 9b, (E)-1-[3-(Furo[2,3-b]quinolin-4-ylamino)phenyl]ethanone O-Methyloxime] | 4230 | 10900 | 6670 | 11500 | 8500 | 11600 | 12600 | 17800 | 8680 | 7560 | 7560 | – | –

Source: patent publication US6750223B2, “4-Anilino[2,3-b]quinoline derivatives, their preparation processes and pharmaceutical compositions comprising the same” (Kaohsiung Medical University, priority 2002, dated 2004)
